Literature values in US20240173460A1, “STORAGE SOLUTIONS FOR MAINTAINING OF AXONAL VIABILITY” (Board of Regents, The University of Texas System, priority 2022, published 2024).

[Cl-].[K+] [Potassium Chloride]
solubility in water: freely soluble in water
